Results reported in US20070078058A1, “Use of MCPP to inhibit tuber sprouting” (ACETO AGRICULTURAL CHEMICALS CORP., priority 2005, published 2007).

Tests used:
[1] = system: Russet Burbank potatoes; assay: Sprout inhibition of stored Russet Burbank potatoes (second trial, 46 degrees F.), thermal fogs and liquid sprays; format: in vivo, Solanum tuberosum
Text: (§1) The storage system was designed to duplicate a large commercial storage facility in miniature. Drums containing 150-200 pounds of potatoes were sealed and housed in a building in which temperature was maintained throughout the testing period at 54 degrees F. for the first summer trial with Norkotah potatoes and 46 degrees F. for the Russet Burbank potatoes in the second trial. During both trials the humidity was maintained at […]. Formed in each drum is an inlet in which untreated air (ventilation air) was introduced under a perforated floor to the drum. The ventilation air moves through the pile of potatoes and is exhausted from the top of the drum to the outside of the building.
(§2) This storage ventilation was shut down for a 24 hour duration during and directly after the treatment of the chemicals. Then it is maintained for the duration of the trial, with ventilation air forced through the drums at a rate of 0.5 cubic feet per minute on a three-hour on and a three-hour off schedule.
(§3) In the spray application technique the formulations were mixed with water and sprayed on the newly harvested tubers at a rate of 5 and 10 parts per million (weight of the active to weight of the potatoes) mixed in a water carrier. The mixture was applied at 1 quart per ton of potatoes. The spray was applied via a hand held spray gun propelled with compressed air as the tubers were rotating in a cement mixer drum. This insured that all surface area is coated with the active ingredient.
(§4) The custom thermal fogger's heat source was an electric hot plate set at 500 degrees F. This temperature is monitored throughout the application with a thermal couple that is inserted in a cavity just below the surface where the chemical is placed. A chamber was attached to the hot plate. A fan was mounted to the top of the chamber. The fogger was attached to the storage container with flexible tubing.
(§5) The fog was delivered to each drum through separate ports. Through the bottom port of the storage drum a perforated stinger was installed that runs the length of the drum. Flexible tubing delivered the fog air mixture from the fogger. The fog air mixture was returned to the thermal fogger through a second flexible tubing that was attached from the top of the storage drum to the bottom of the thermal fogger. The air fog mixture was re-circulated through the system for five minutes.
Russet Burbank potatoes were selected for the second trial. The Russet Burbank is noted for its long term storability and is one of the most popular cultivars used for storage as it can be used as both a fresh pack potato and also has very desirable processing qualities.
(§6) The potatoes were monitored for sprout activity on a regular basis after treatment. When early sprout activity was observed the potatoes were first evaluated. Then at approximately 30 day intervals, 60 tubers were randomly selected from each treatment. Each tuber was rated for the length of the longest sprout on each tuber. The scale used for the rating system as is follows: • 0—Not Peeping=no sprout or swelling of eye tissue evident. • 1—Peeping=swelling of eye tissue up to a sprout length of 3 mm • 2—sprout length from 3 mm to 1 cm. • 3—sprout length from 1 cm to 3 cm. • 4—sprout length from 3 cm to 5 cm. • 5—sprout length from 5 cm and longer
(§7) Results of each set of 60 tubers were recorded into 6 subsets of 10 tubers each (replicates). Each set is summarized as a percent. The data is also summarized into AVERAGE SPROUT LENGTH and PERCENT OK RE: FRESHPCK (Fresh pack).
(§8) The PERCENT OK RE: FRESHPCK is the percent of the tubers that are NOT PEEPING and PEEPING categories combined together.
(§9) The MCPP spray was a MCPP potassium salt providing 2.5 pounds active ingredient per gallon of inert ingredients (water/coformulants). […]

[2] = system: Russet Norkotah potatoes; assay: Sprout inhibition of stored Russet Norkotah potatoes (first trial, 54 degrees F.); format: in vivo, Solanum tuberosum
Text: as §1, §2, §3
All of the treatments in the reported test on Russet Norkotah used this technique with the exception of Untreated and CIPC A (CIPC 98A) that was thermal fogged.
as §4, §5
Russet Norkotah potatoes were selected for the first trial for their short natural dormancy and aggressive sprouting.
as §6, §7, §8, §9

[3] = Concentration analysis: amounts recovered on the whole potato; conditions: thermal fog application
Text: Much better results were obtained with the spray applications compared to the thermal fog applications of MCPP, believed to be due to the fact that we established a higher concentration on the tuber via spray.
For example, for spray and thermal fog application, amounts recovered on the whole potato approximately four months later were as follows: MCPP10 ppm applied via thermal fog=0.038 ppm MCPP10 ppm applied via liquid spray=6.3 ppm

[4] = 5 ppm Fog, 132 days after harvest
[5] = 5 ppm Fog, 161 days after harvest
[6] = 5 ppm Fog, 191 days after harvest
[7] = 5 ppm Fog, 223 days after harvest
[8] = 5 ppm Fog, 252 days after harvest
[9] = 5 ppm Fog, 283 days after harvest
[10] = 5 ppm Spray, 132 days after harvest
[11] = 5 ppm Spray, 161 days after harvest
[12] = 5 ppm Spray, 191 days after harvest
[13] = 5 ppm Spray, 223 days after harvest
[14] = 5 ppm Spray, 252 days after harvest
[15] = 5 ppm Spray, 283 days after harvest
[16] = 11 ppm Fog, 132 days after harvest
[17] = 11 ppm Fog, 161 days after harvest
[18] = 11 ppm Fog, 191 days after harvest
[19] = 11 ppm Fog, 223 days after harvest
[20] = 11 ppm Fog, 252 days after harvest
[21] = 11 ppm Fog, 283 days after harvest

Compound: O=C(O)COc1ccc(Cl)cc1Cl [2,4 D Acid, (2,4-(dichlorophenoxy)-acetic acid, reference compound]
- % OK For Fresh Pack Dormant + sprout up to 3 mm [1, 4]: 100.0%
- % OK For Fresh Pack Dormant + sprout up to 3 mm [1, 5]: 16.7%
- % OK For Fresh Pack Dormant + sprout up to 3 mm [1, 6]: 0.0%
- % OK For Fresh Pack Dormant + sprout up to 3 mm [1, 7]: 0.0%
- % OK For Fresh Pack Dormant + sprout up to 3 mm [1, 8]: 0.0%
- % OK For Fresh Pack Dormant + sprout up to 3 mm [1, 9]: 0.0%

Compound: CCCCC(CC)COC(=O)COc1ccc(Cl)cc1Cl (stereo not shown) [2,4 D LV, Isooctyl (2-ethylhexyl) ester of 2,4-Dichlorphenoxyacetic acid]
- % OK For Fresh Pack Dormant + sprout up to 3 mm [1, 10]: 96.7%
- % OK For Fresh Pack Dormant + sprout up to 3 mm [1, 11]: 30.0%
- % OK For Fresh Pack Dormant + sprout up to 3 mm [1, 12]: 8.3%
- % OK For Fresh Pack Dormant + sprout up to 3 mm [1, 13]: 0.0%
- % OK For Fresh Pack Dormant + sprout up to 3 mm [1, 14]: 0.0%
- % OK For Fresh Pack Dormant + sprout up to 3 mm [1, 15]: 0.0%

Compound: O=C(O)CCCOc1ccc(Cl)cc1Cl [2,4 DB]
- % OK for Fresh Pack Dormant + sprout up to 3 mm ([2]; 5 ppm Spray, 53 DAH): 81.7%
- % OK for Fresh Pack Dormant + sprout up to 3 mm ([2]; 5 ppm Spray, 85 DAH): 3.3%
- % OK for Fresh Pack Dormant + sprout up to 3 mm ([2]; 5 ppm Spray, 107 DAH): 0.0%
- % OK for Fresh Pack Dormant + sprout up to 3 mm ([2]; 10 ppm Spray, 53 DAH): 91.7%
- % OK for Fresh Pack Dormant + sprout up to 3 mm ([2]; 10 ppm Spray, 85 DAH): 11.7%
- % OK for Fresh Pack Dormant + sprout up to 3 mm ([2]; 10 ppm Spray, 107 DAH): 0.0%

Compound: CC(C)OC(=O)Nc1cccc(Cl)c1 [CIPC 98A, isopropyl 3-chlorophenylcarbamate, reference compound]
- % OK for Fresh Pack Dormant + sprout up to 3 mm ([2]; 16.6 ppm Fog, 53 DAH): 100.0%
- % OK for Fresh Pack Dormant + sprout up to 3 mm ([2]; 16.6 ppm Fog, 85 DAH): 86.7%
- % OK for Fresh Pack Dormant + sprout up to 3 mm ([2]; 16.6 ppm Fog, 107 DAH): 86.7%
- % OK For Fresh Pack Dormant + sprout up to 3 mm [1, 16]: 100.0%
- % OK For Fresh Pack Dormant + sprout up to 3 mm [1, 17]: 26.7%
- % OK For Fresh Pack Dormant + sprout up to 3 mm [1, 18]: 0.0%
- % OK For Fresh Pack Dormant + sprout up to 3 mm [1, 19]: 0.0%
- % OK For Fresh Pack Dormant + sprout up to 3 mm [1, 20]: 0.0%
- % OK For Fresh Pack Dormant + sprout up to 3 mm [1, 21]: 0.0%
- % OK For Fresh Pack Dormant + sprout up to 3 mm ([1]; 16.6 ppm Fog, 132 days after harvest): 100.0%
- % OK For Fresh Pack Dormant + sprout up to 3 mm ([1]; 16.6 ppm Fog, 161 days after harvest): 26.7%
- % OK For Fresh Pack Dormant + sprout up to 3 mm ([1]; 16.6 ppm Fog, 191 days after harvest): 0.0%
- % OK For Fresh Pack Dormant + sprout up to 3 mm ([1]; 16.6 ppm Fog, 223 days after harvest): 0.0%
- % OK For Fresh Pack Dormant + sprout up to 3 mm ([1]; 16.6 ppm Fog, 252 days after harvest): 0.0%
- % OK For Fresh Pack Dormant + sprout up to 3 mm ([1]; 16.6 ppm Fog, 283 days after harvest): 0.0%

Compound: Cc1cc(Cl)ccc1OC(C)C(=O)O (stereo not shown) [MCPP, 2-(4-Chloro-2-methylphenoxy)propanoic acid]
- % OK for Fresh Pack Dormant + sprout up to 3 mm ([2]; 5 ppm Spray, 53 DAH): 98.3%
- % OK for Fresh Pack Dormant + sprout up to 3 mm ([2]; 5 ppm Spray, 85 DAH): 53.3%
- % OK for Fresh Pack Dormant + sprout up to 3 mm ([2]; 5 ppm Spray, 107 DAH): 1.7%
- % OK for Fresh Pack Dormant + sprout up to 3 mm ([2]; 10 ppm Spray, 53 DAH): 100.0%
- % OK for Fresh Pack Dormant + sprout up to 3 mm ([2]; 10 ppm Spray, 85 DAH): 71.7%
- % OK for Fresh Pack Dormant + sprout up to 3 mm ([2]; 10 ppm Spray, 107 DAH): 25.0%
- % OK For Fresh Pack Dormant + sprout up to 3 mm [1, 4]: 93.3%
- % OK For Fresh Pack Dormant + sprout up to 3 mm [1, 5]: 3.3%
- % OK For Fresh Pack Dormant + sprout up to 3 mm [1, 6]: 0.0%
- % OK For Fresh Pack Dormant + sprout up to 3 mm [1, 7]: 0.0%
- % OK For Fresh Pack Dormant + sprout up to 3 mm [1, 8]: 0.0%
- % OK For Fresh Pack Dormant + sprout up to 3 mm [1, 9]: 0.0%
- % OK For Fresh Pack Dormant + sprout up to 3 mm [1, 10]: 100.0%
- % OK For Fresh Pack Dormant + sprout up to 3 mm [1, 11]: 95.0%
- % OK For Fresh Pack Dormant + sprout up to 3 mm [1, 12]: 73.3%
- % OK For Fresh Pack Dormant + sprout up to 3 mm [1, 13]: 38.3%
- % OK For Fresh Pack Dormant + sprout up to 3 mm [1, 14]: 6.7%
- % OK For Fresh Pack Dormant + sprout up to 3 mm [1, 15]: 5.0%
- % OK For Fresh Pack Dormant + sprout up to 3 mm ([1]; 10 ppm Fog, 132 days after harvest): 100.0%
- % OK For Fresh Pack Dormant + sprout up to 3 mm ([1]; 10 ppm Fog, 161 days after harvest): 15.0%
- % OK For Fresh Pack Dormant + sprout up to 3 mm ([1]; 10 ppm Fog, 191 days after harvest): 0.0%
- % OK For Fresh Pack Dormant + sprout up to 3 mm ([1]; 10 ppm Fog, 223 days after harvest): 0.0%
- % OK For Fresh Pack Dormant + sprout up to 3 mm ([1]; 10 ppm Fog, 252 days after harvest): 0.0%
- % OK For Fresh Pack Dormant + sprout up to 3 mm ([1]; 10 ppm Fog, 283 days after harvest): 0.0%
- % OK For Fresh Pack Dormant + sprout up to 3 mm ([1]; 10 ppm Spray, 132 days after harvest): 100.0%
- % OK For Fresh Pack Dormant + sprout up to 3 mm ([1]; 10 ppm Spray, 161 days after harvest): 100.0%
- % OK For Fresh Pack Dormant + sprout up to 3 mm ([1]; 10 ppm Spray, 191 days after harvest): 90.0%
- % OK For Fresh Pack Dormant + sprout up to 3 mm ([1]; 10 ppm Spray, 223 days after harvest): 65.0%
- % OK For Fresh Pack Dormant + sprout up to 3 mm ([1]; 10 ppm Spray, 252 days after harvest): 20.0%
- % OK For Fresh Pack Dormant + sprout up to 3 mm ([1]; 10 ppm Spray, 283 days after harvest): 10.0%
- stability when exposed to heat [3]: break down rapidly when exposed to heat

Compound: Diisopropylnaphthalene [DIPN, reference compound]
- % OK For Fresh Pack Dormant + sprout up to 3 mm [1, 16]: 56.7%
- % OK For Fresh Pack Dormant + sprout up to 3 mm [1, 17]: 15%
- % OK For Fresh Pack Dormant + sprout up to 3 mm [1, 18]: 0%
- % OK For Fresh Pack Dormant + sprout up to 3 mm [1, 19]: 0%
- % OK For Fresh Pack Dormant + sprout up to 3 mm [1, 20]: 0%
- % OK For Fresh Pack Dormant + sprout up to 3 mm [1, 21]: 0%
